Patent US10730860B2, “Diaminopyrimidine benzenesulfone derivatives and uses thereof” (Dana-Farber Cancer Institute, Inc., priority 2014, dated 2020)

Experiments:
HL60 cells = test: Cellular assay, cell viability (ATPlite), BRD4 dependent cell line HL60; type: cell-based; details: Homo sapiens, HL-60, 72 h; BRD4 dependent cell line HL60, three days incubation
Procedure: (§1) The compounds of the invention are also evaluated in the BRD4 dependant cell line for the cellular activity to generate cellular IC50 values.
(§2) Cells (e.g., BRD4 dependant cells) were counted and adjusted to 60,000 cells/mL. Using a Biotek EL406, 50 μL of the cells in media were distributed into 384 well white plates from Thermo. Immediately after plating, compounds of the invention in DMSO were distributed to plates. For large plate sets, cells were returned to a 37° C. incubator while not in use. The compounds were added to plates using a 100 nL 384 well pin transfer manifold on a Janus workstation. Stocks were arrayed in 10 point quadruplicate dose response in DMSO stock in 384-well Greiner compound plates. After addition of the compounds, plates were incubated for three days in a 37° C. incubator. Cell viability was read out using ATPlite from Perkin Elmer. Plates were removed from the incubator and brought to room temperature prior to use. Lyophilized powder was resuspended in lysis buffer and diluted 1:2 with DI water. 25 μL of this solution was added to each well using the Biotek liquid handler. Plates were sealed with adherent aluminum seals prior to vortexing and spinning down at 1000 g for 1 minute. Plates were incubated for 15 minutes at room temperature before signal was read on an Envision Plate Reader.

797 cells = test: Cellular assay, cell viability (ATPlite), BRD4 dependent cell line 797; type: cell-based; details: 72 h; BRD4 dependent cell line 797, three days incubation
Procedure: as §1, §2

BRD4.1 [1] = target: T1, BRD4.1 (Homo sapiens (Human), UniProt O60885); test: Isothermal Titration Calorimetery (ITC); type: binding; details: BRD4.1, 25° C.
Procedure: Isothermal Titration Calorimetery
ITC was performed using a ITC200 microcalorimeter from GE™ (Northampton, Mass.). All experiments were carried out at 25° C. while stirring at 1000 rpm, in ITC buffer (50 mM HEPES pH 7.4 at 25° C., 150 mM NaCl). The microsyringe was loaded with a solution of the protein sample (225 μM, in ITC buffer). […] All titrations were conducted using an initial injection of 0.2 μl, followed by 19 identical injections of 2 μl with a duration of 5 sec (per injection) and a spacing of 90 sec between injections. The heat of dilution was determined by independent titrations (protein into buffer) and was subtracted from the experimental data. […] The collected data were implicated in the MicroCal™ Origin software supplied with the instrument to yield enthalpies of binding (ΔH) and binding constants (KB) as previously described by Wiseman and coworkers. Thermodynamic parameters were calculated (ΔG=ΔH−TΔS=−RT ln KB, where ΔG, ΔH and ΔS are the changes in free energy, enthalpy and entropy of binding respectively). A single binding site model was employed.

BRD4.1 [2] = target: T1, BRD4.1; test: Acetyl-Histone Binding Assay (AlphaScreen); details: in vitro percent inhibition of BRD4.1 at 2.5 μM compound concentration; read-out: % INHIB (at 2.5 uM)
Procedure: Assays were performed with minor modifications from the manufacturer's protocol (PerkinElmer, USA). All reagents were diluted in 50 mM HEPES, 150 mM NaCl, 0.1% w/v BSA, and 0.01% w/v Tween^□ 20 at pH 7.5 and allowed to equilibrate to room temperature prior to addition to plates. After addition of Alpha beads to master solutions, all subsequent steps were performed in low light conditions. […] Addition to wells was performed with either a multichannel pipet (for optimization experiments) or a Biotek EL406 liquid handler. After a 1000-rpm spin-down for 1 minute, 100 nL of the solutions of the compounds of the invention from stock plates were added by pin transfer using a Janus Workstation (PerkinElmer, USA). The streptavidin-coated donor beads (25 μg/ml final) were added as with previous solution in a 2×, 10 μL volume. Following this addition, the plates were sealed with foil to block light exposure and to prevent evaporation. The plates were spun down again at 1000 rpm for 1 minute. Next, the plates were incubated in the room with the plate reader (for temperature equilibration) for 1.5 hour prior to reading the assay.

| Structure (SMILES) | EC50 (HL60 cells) [µM] | EC50 (797 cells) [µM] | Kd (BRD4.1 [1]) [µM] | inhibition at 2.5 µM (BRD4.1 [2]) [%] |
| --- | --- | --- | --- | --- |
| CC(C)(C)NS(=O)(=O)c1cccc(Nc2nc(Nc3ccc(OCCN4CCCC4)cc3)ncc2N)c1 | 2.07 | 2.4 | 0.483 |  |
| CCN1CCN(C(=O)Cc2ccc(Nc3ncc(F)c(Nc4ccc(C(=O)Nc5ccccc5Cl)cc4)n3)cc2)CC1 |  |  |  | 56.1 |
| Cc1cnc(Nc2ccc(OCCN3CCCC3)cc2)nc1Nc1cccc(S(=O)(=O)NC(C)(C)C)c1 |  |  |  | 36 |
